Assay results taken from patent US20060189546A1, “Compounds for treating autoimmune and demyelinating diseases” (priority 2005, published 2006).

How the values were obtained:
IL-10 = assay: Mediator release, IL-10 (Con A-stimulated PBML, sandwich ELISA); format: cell-based; details: Homo sapiens, IL-10 release
Description: In this experiment, test compound and/or vehicle were preincubated with human peripheral blood mononuclear leukocyte (PBML, 1×10^6/ml) in RPMI buffer pH 7.4 for 2 hours. Concanavalin A (Con A, 20 μg/ml) was then added to stimulate the cells overnight in 5% CO2 at 37° C. IL-4 and IL-10 cytokine levels in the conditioned medium were then quantified using a sandwich ELISA kit. Compounds were screened at 10, 1, 0.1, 0.01 and 0.001 μM.

T-lymphocyte cells = assay: Cell Proliferation, T-Cell + Con A ([3H]thymidine incorporation); format: cell-based, balb/c mice; details: Mus musculus
Description: T-lymphocyte cells isolated from thymus of balb/c mice weighing 17±1 g were used. Test compound and/or vehicle is incubated with the cells (4×10^6/ml) in the presence of 3 μg/mL Concanavalin A (Con A) in AIM-V medium pH 7.4 at 37° C. for 24 hours. [^3H]Thymidine (120 nM) was then added for an additional overnight incubation period. Thymidine incorporation was assessed by liquid scintillation counting.
Test compound-induced suppression of cell proliferation by 50 percent or more (≧50%) relative to vehicle control response indicates significant inhibitory activity.

[1] = test system: Experimental Autoimmune Encephalomyelitis (EAE); assay: Chronic-progressive EAE, weekly treatment for 4 weeks (Example 2); format: in vivo, Hartley guinea pigs
Description: In the present experiment, female juvenile Hartley guinea pigs (225 g) were immunized with homogenized whole CNS (in saline) with an equal amount of complete Freund's Adjuvant and 10 mg added killed M. tuberculosis. The animals (>95%) show clinical signs starting on day 7 post immunization. An acute event of varying severity occurs between day 7 and day 20 followed by a continuous accumulation of clinical abnormality with hind limb paralysis, fecal impaction and incontinence. […] These clinical features indicate inflammation-induced lumbar spinal cord demyelination.
In these experiments, the immunized animals were nursed until day 40 or day 52 and then treated with 8 mg/kg and 16 mg/kg Symadex™ (intra cardiac), or 20 mg/kg and 40 mg/kg Symadex™ (i.p.) once a week for 4 weeks. Controls were given vehicle. Clinical signs were scored daily and the weights recorded. At the completion of the treatment period, the brain and spinal cord were dissected, formalin fixed and blocked for routine pathological examination of meningeal inflammation, perivascular infiltration (cuffing), parenchymal myelitis and demyelination by a blinded observer using hematoxylin-eosin and solochrome R cyanin stained sections.
Untreated, chronic EAE animals (n=5) were sacrificed on day 40, as well as non-EAE controls (n=5). Following each 10-day treatment interval, five animals from each group were sacrificed (0.25 ml sodium pentobarbital), blood samples were collected for FACS analysis (see below), and the brain and spinal cord dissected and sectioned. Three spinal sections were used, corresponding to lumbar, thoracic and cervical regions of the cord. The brain was cut into five transverse sections; the first three proximal sections were combined in one block, and the last two distal sections in another. Tissues were fixed in 10% formalin and embedded in paraffin. Five micrometer sections were stained with hematoxylin-eosin (H-E) or solochrome-R-cyanin (SCR) and evaluated by a blinded observer in each of the four categories: meningeal inflammation, perivascular infiltration, encephalitis or myelitis and demyelination (Table 2). The combined pathological score represents the total score (out of a potential 20) from all five CNS sections in each animal.
To quantify the abnormalities observed in the spinal cord, sections stained with H-E were divided into 12 representative pie-shaped areas. In each area, the number of cells within a 0.12-mm^2 field of view was counted using Sigma Scan Pro image analysis software (SPSS), and the combined mean number of cell in all 12 areas was calculated for the whole spinal cord (36 fields of view per animal). Note that as all cell nuclei were counted, the number of cells may include neurons and glial cells in addition to infiltrates.

[2] = CNS histopathology after treatment

CCN(CC)CCNc1ccc2ncn3c4ccc(O)cc4c(=O)c1c23 [Symadex™, 5-[[(diethylamino)ethyl]amino]-8-hydroxyimidazo[4,5,1-de]-acridine-6-one]
IC50 (IL-10): 1200 nM
inhibition at 0.001 µM (IL-10; 1 nM, read-out: % Growth Inhibition): 1%
inhibition at 0.01 µM (IL-10; 10 nM, read-out: % Growth Inhibition): 16%
inhibition at 0.1 µM (IL-10; 0.1 μM, read-out: % Growth Inhibition): 16%
inhibition at 1 µM (IL-10; 1 μM, read-out: % Growth Inhibition): 39%
inhibition at 10 µM (IL-10; 10 μM, read-out: % Growth Inhibition): 99%
IC50 (T-lymphocyte cells; T-Cell + Con A): 14 nM
inhibition at 0.001 µM (T-lymphocyte cells; T-Cell + Con A, 1 nM, read-out: % Growth Inhibition): 10%
inhibition at 0.01 µM (T-lymphocyte cells; T-Cell + Con A, 10 nM, read-out: % Growth Inhibition): 44%
inhibition at 0.1 µM (T-lymphocyte cells; T-Cell + Con A, 0.1 μM, read-out: % Growth Inhibition): 82%
inhibition at 1 µM (T-lymphocyte cells; read-out: % Growth Inhibition): 103%
inhibition at 10 µM (T-lymphocyte cells; read-out: % Growth Inhibition): 104%
time to clinical recovery from start of treatment ([1]; 40 mg/kg i.p. once a week): ≤ 2 weeks
clinical progress and pathological findings ([1]; 20 and 40 mg/kg i.p. once a week for 4 weeks): profound and substantial change in the clinical progress and pathological findings
cells in existing lesions [1, 2]: profound loss of cells
remyelination (myelin pallor) [1, 2]: myelin pallor previously attributed to remyelination
scores for meningeal inflammation and perivascular infiltration ([1]; treated groups vs vehicle controls, CNS histopathology): more severe in the treated groups than in vehicle controls
